ChEMBL document CHEMBL1201862, “PubChem BioAssay data set” (2004)
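48-hour exposure; five concentrations; linearly interpolated endpoints. GI50 = concentration required for 50% inhibition of growth.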 Active and inactive are the calls of the source. No stated cut-off is given here; in the data, active = GI50 up to about 1.1 µM and inactive = higher.

Tests used:
Assay in all cases: inhibition of tumour cell growth, NCI panel, 48 h
SN12C = test system: SN12C
CAKI-1 = test system: CAKI-1
SNB-75 = test system: SNB-75
786-0 = test system: 786-0
LOX IMVI = test system: LOX IMVI
HCT-116 = test system: HCT-116
MDA-MB-231 = test system: MDA-MB-231
OVCAR-5 = test system: OVCAR-5
CCRF-CEM = test system: CCRF-CEM
KM12 = test system: KM12
SK-MEL-2 = test system: SK-MEL-2
M14 = test system: M14
MCF7 = test system: MCF7
K562 = test system: K562
A549 = test system: A549
SR = test system: SR
XF498 = test system: XF498
DMS-273 = test system: DMS-273
HOP-18 = test system: HOP-18
LXFL 529 = test system: LXFL 529

Compound	GI50 (SN12C)	GI50 (CAKI-1)	GI50 (SNB-75)	GI50 (786-0)	GI50 (LOX IMVI)	GI50 (HCT-116)	GI50 (MDA-MB-231)	GI50 (OVCAR-5)	GI50 (CCRF-CEM)	GI50 (KM12)	GI50 (SK-MEL-2)	GI50 (M14)	GI50 (MCF7)	GI50 (K562)	GI50 (A549)	GI50 (SR)	GI50 (XF498)	GI50 (DMS-273)	GI50 (HOP-18)	GI50 (LXFL 529)
Oc1nc2c(c(-c3ccccc3Cl)n1)COC/C2=C\c1ccccc1Cl	> 100 µM (inactive)	> 100 µM (inactive)	38.9 µM (inactive)	> 100 µM (inactive)	> 100 µM (inactive)	> 100 µM (inactive)	> 100 µM (inactive)	> 100 µM (inactive)	49.3 µM (inactive)	> 100 µM (inactive)	> 100 µM (inactive)	> 100 µM (inactive)	65.9 µM (inactive)	–	–	–	–	–	–	–
CC(=O)NC(CCCCNC(=O)OC(C)(C)C)C(=O)O (configuration not stated)	–	63.4 µM (inactive)	–	–	> 100 µM (inactive)	> 100 µM (inactive)	> 100 µM (inactive)	38.1 µM (inactive)	> 100 µM (inactive)	–	–	> 100 µM (inactive)	> 100 µM (inactive)	> 100 µM (inactive)	> 100 µM (inactive)	–	–	–	–	–
COc1ccc2c(c1)c1c(n2CCN2CCCCC2)-c2cccc(OC)c2CC1	14.9 µM (inactive)	16.4 µM (inactive)	18.5 µM (inactive)	20.2 µM (inactive)	16.1 µM (inactive)	24.7 µM (inactive)	15.6 µM (inactive)	16.1 µM (inactive)	4.27 µM (inactive)	13 µM (inactive)	17.4 µM (inactive)	12 µM (inactive)	15.5 µM (inactive)	9.04 µM (inactive)	27.9 µM (inactive)	4.9 µM (inactive)	–	–	–	–
Cc1cn(C2CC(O)C(Cn3cc(Cn4nc(Br)c(=O)[nH]c4=O)nn3)O2)c(=O)[nH]c1=O (configuration not stated)	> 100 µM (inactive)	> 100 µM (inactive)	> 100 µM (inactive)	–	–	> 100 µM (inactive)	> 100 µM (inactive)	> 100 µM (inactive)	0.332 µM (active)	> 100 µM (inactive)	> 100 µM (inactive)	> 100 µM (inactive)	> 100 µM (inactive)	–	> 100 µM (inactive)	–	–	–	–	–
Nc1ncnc2c1nnn2C1OC(CO)C(O)C1O (configuration not stated)	1.17 µM (inactive)	4.5 µM (inactive)	9.02 µM (inactive)	–	1.8 µM (inactive)	1.9 µM (inactive)	–	4.37 µM (inactive)	3.23 µM (inactive)	4.21 µM (inactive)	1.3 µM (inactive)	–	2.48 µM (inactive)	1.61 µM (inactive)	3.65 µM (inactive)	–	6.98 µM (inactive)	2.62 µM (inactive)	2.69 µM (inactive)	–
Nc1nc(=O)[nH]cc1F [FLUCYTOSINE]	> 100 µM (inactive)	> 100 µM (inactive)	–	> 100 µM (inactive)	> 100 µM (inactive)	> 100 µM (inactive)	–	> 100 µM (inactive)	–	> 100 µM (inactive)	> 100 µM (inactive)	> 100 µM (inactive)	> 100 µM (inactive)	> 100 µM (inactive)	> 100 µM (inactive)	> 100 µM (inactive)	–	–	–	–
CCNC(=O)C(C)C1CCC2(C)C=CC(=O)C(C)=C2C1O (configuration not stated)	> 100 µM (inactive)	> 100 µM (inactive)	> 100 µM (inactive)	–	> 91 µM (inactive)	> 100 µM (inactive)	–	> 100 µM (inactive)	> 100 µM (inactive)	> 100 µM (inactive)	> 100 µM (inactive)	–	> 100 µM (inactive)	> 100 µM (inactive)	99.5 µM (inactive)	–	> 100 µM (inactive)	> 77.4 µM (inactive)	> 100 µM (inactive)	–
CC(=O)Nc1ccc2oc(=O)c3ccccc3c2c1	> 100 µM (inactive)	> 100 µM (inactive)	> 100 µM (inactive)	> 100 µM (inactive)	> 100 µM (inactive)	> 100 µM (inactive)	–	> 100 µM (inactive)	> 100 µM (inactive)	> 100 µM (inactive)	> 100 µM (inactive)	> 100 µM (inactive)	> 100 µM (inactive)	> 100 µM (inactive)	> 100 µM (inactive)	> 100 µM (inactive)	–	–	–	–
COc1ccc(C[C@H](N)C(=O)N2C[C@@H](CO)C[C@@H](n3cnc4c(N(C)C)ncnc43)C2)cc1	–	> 100 µM (inactive)	–	> 100 µM (inactive)	> 100 µM (inactive)	> 100 µM (inactive)	–	> 100 µM (inactive)	> 100 µM (inactive)	> 100 µM (inactive)	> 100 µM (inactive)	> 100 µM (inactive)	–	> 100 µM (inactive)	> 100 µM (inactive)	> 100 µM (inactive)	–	> 100 µM (inactive)	> 100 µM (inactive)	> 100 µM (inactive)
COc1cc(C=O)cc(O)c1O	> 100 µM (inactive)	–	> 100 µM (inactive)	> 100 µM (inactive)	> 100 µM (inactive)	> 100 µM (inactive)	–	–	38.9 µM (inactive)	> 100 µM (inactive)	–	> 100 µM (inactive)	–	> 100 µM (inactive)	> 100 µM (inactive)	57.9 µM (inactive)	–	> 100 µM (inactive)	–	> 100 µM (inactive)
